US20260256792A1, “TREATMENT OF CHRONIC SPONTANEOUS URTICARIA BY ADMINISTERING (R)-2-[3-[4-AMINO-3-(2-FLUORO-4-PHENOXY-PHENYL)PYRAZOLO[3,4-D]PYRIMIDIN-1-YL]PIPERIDINE-1-CARBONYL]-4-METHYL-4-[4-(OXETAN-3-YL)PIPERAZIN-1-YL]PENT-2-ENENITRILE” (priority 2023, published 2026)

System: moderate-to-severe chronic spontaneous urticaria (CSU)
Assay: Phase 2 CSU study: hives severity score over 7 days (HSS7)
Type: in vivo, human
Parameters: key to HSS7 Change from baseline, Median / HSS7, Median / HSS7, Max / HSS7 Change from baseline, Q1 / HSS7 Change from baseline, Q3 / HSS7 Change from baseline, Max: 7-day sum of daily hive scores, each 0 = none to 3 = >50 hives
Text: The study comprises a 12 week, randomized, double-blind, placebo-controlled, multi-center, dose-ranging efficacy and safety phase, followed by a 40 week open label extension (OLE) phase (see FIG. 1).
The study consists of three phases and an optional OLE phase.
The UAS is a validated PRO measure. The daily UAS is the sum of the daily Hive Severity Score (HSS, ranging from 0=None to 3=more than 50 hives) and the daily Itch Severity Score (ISS, ranging from 0=None to 3=intense), the 2 key urticaria signs and symptoms which are wheals and itch. The daily UAS scores range from 0 to 6 point/day. Daily UAS scores are summed over 7-day period to create the UAS7, ranging from 0 to 42, and are composed of the HSS7 and ISS7 components. […] Patients were to complete the UAS using the e-diary. The e-diary was to be used once daily on the same time of each day recording of participant's answers to the urticaria activity score over 7 days (UAS7) questionnaire. For participants who entered the OLE phase, their answers to the UAS7 questionnaire were also to be collected from Week 20 to Week24 and from Week 48 to Week 52.
The following secondary endpoints were to be analyzed using the same approach as for the primary endpoint: • Change from baseline in UAS7 at Week 4 • Change from baseline in UAS7 at Week 12 (for US and US reference countries) • Change from baseline in ISS7 at Week 12 (except US and US reference countries) • Change from baseline in HSS7 at Week 12

[1] = Week 7, 400 mg BID, Omalizumab-Naïve Population
[2] = Week 7, 400 mg BID, Patients with Prior Omalizumab Use
[3] = Week 7, 400 mg QPM, Omalizumab-Naïve Population
[4] = Week 7, 400 mg QPM, Patients with Prior Omalizumab Use
[5] = Week 7, 400 mg TID, Omalizumab-Naïve Population
[6] = Week 7, 400 mg TID, Patients with Prior Omalizumab Use
[7] = Week 8, 400 mg BID, Omalizumab-Naïve Population
[8] = Week 8, 400 mg BID, Patients with Prior Omalizumab Use
[9] = Week 8, 400 mg QPM, Omalizumab-Naïve Population
[10] = Week 8, 400 mg QPM, Patients with Prior Omalizumab Use
[11] = Week 8, 400 mg TID, Omalizumab-Naïve Population
[12] = Week 8, 400 mg TID, Patients with Prior Omalizumab Use
[13] = Week 9, 400 mg BID, Omalizumab-Naïve Population
[14] = Week 9, 400 mg BID, Patients with Prior Omalizumab Use
[15] = Week 9, 400 mg QPM, Omalizumab-Naïve Population
[16] = Week 9, 400 mg QPM, Patients with Prior Omalizumab Use
[17] = Week 9, 400 mg TID, Omalizumab-Naïve Population
[18] = Week 9, 400 mg TID, Patients with Prior Omalizumab Use

SMILES: CC(C)(C=C(C#N)C(=O)N1CCC[C@@H](n2nc(-c3ccc(Oc4ccccc4)cc3F)c3c(N)ncnc32)C1)N1CCN(C2COC2)CC1 [rilzabrutinib, (R)-2-[3-[4-amino-3-(2-fluoro-4-phenoxy-phenyl)pyrazolo[3,4-d]pyrimidin-1-yl]piperidine-1-carbonyl]-4-methyl-4-[4-(oxetan-3-yl)piperazin-1-yl]pent-2-enenitrile]
- HSS7, Mean (SD) [1]: 7.34 (6.12)
- HSS7, Median [1]: 7.00
- HSS7 Change from baseline, Mean (SD) [1]: −6.75 (5.85)
- HSS7 Change from baseline, Median [1]: −7.00
- HSS7 Percent change from baseline, Mean (SD) [1]: −48.07 (38.31) %
- HSS7 Percent change from baseline, Median [1]: −50.00%
- HSS7, Mean (SD) [2]: 4.80 (7.46)
- HSS7, Median [2]: 0.00
- HSS7 Change from baseline, Mean (SD) [2]: −10.00 (9.67)
- HSS7 Change from baseline, Median [2]: −12.00
- HSS7 Percent change from baseline, Median [2]: −100.00%
- HSS7, Mean (SD) [3]: 10.43 (5.27)
- HSS7, Median [3]: 8.40
- HSS7 Change from baseline, Mean (SD) [3]: −4.82 (5.35)
- HSS7 Change from baseline, Median [3]: −4.00
- HSS7 Percent change from baseline, Mean (SD) [3]: −29.76 (31.10) %
- HSS7 Percent change from baseline, Median [3]: −35.71%
- HSS7, Mean (SD) [4]: 9.00 (NC)
- HSS7, Median [4]: 9.00
- HSS7 Change from baseline, Mean (SD) [4]: −11.00 (NC)
- HSS7 Change from baseline, Median [4]: −11.00
- HSS7 Percent change from baseline, Mean (SD) [4]: −55.00 (NC) %
- HSS7 Percent change from baseline, Median [4]: −55.00%
- HSS7, Mean (SD) [5]: 6.40 (4.54)
- HSS7, Median [5]: 5.92
- HSS7 Change from baseline, Mean (SD) [5]: −7.60 (5.60)
- HSS7 Change from baseline, Median [5]: −6.58
- HSS7 Percent change from baseline, Mean (SD) [5]: −52.36 (32.23) %
- HSS7 Percent change from baseline, Median [5]: −50.69%
- HSS7, Mean (SD) [6]: 5.11 (4.08)
- HSS7, Median [6]: 4.33
- HSS7 Change from baseline, Mean (SD) [6]: −10.92 (7.20)
- HSS7 Change from baseline, Median [6]: −9.50
- HSS7 Percent change from baseline, Mean (SD) [6]: −63.38 (24.01) %
- HSS7 Percent change from baseline, Median [6]: −54.41%
- HSS7, Mean (SD) [7]: 6.66 (6.70)
- HSS7, Median [7]: 5.00
- HSS7 Change from baseline, Mean (SD) [7]: −7.49 (6.10)
- HSS7 Change from baseline, Median [7]: −7.00
- HSS7 Percent change from baseline, Mean (SD) [7]: −54.71 (40.69) %
- HSS7 Percent change from baseline, Median [7]: −74.07%
- HSS7, Mean (SD) [8]: 4.80 (7.46)
- HSS7, Median [8]: 0.00
- HSS7 Change from baseline, Mean (SD) [8]: −10.00 (9.67)
- HSS7 Change from baseline, Median [8]: −12.00
- HSS7 Percent change from baseline, Median [8]: −100.00%
- HSS7, Median [9]: 9.00
- HSS7 Change from baseline, Mean (SD) [9]: −4.56 (5.35)
- HSS7 Change from baseline, Median [9]: −4.00
- HSS7 Percent change from baseline, Mean (SD) [9]: −29.79 (35.34) %
- HSS7 Percent change from baseline, Median [9]: −28.57%
- HSS7, Mean (SD) [10]: 9.00 (NC)
- HSS7, Median [10]: 9.00
- HSS7 Change from baseline, Mean (SD) [10]: −11.00 (NC)
- HSS7 Change from baseline, Median [10]: −11.00
- HSS7 Percent change from baseline, Mean (SD) [10]: −55.00 (NC) %
- HSS7 Percent change from baseline, Median [10]: −55.00%
- HSS7, Mean (SD) [11]: 6.12 (4.80)
- HSS7, Median [11]: 6.00
- HSS7 Change from baseline, Mean (SD) [11]: −7.88 (5.18)
- HSS7 Change from baseline, Median [11]: −7.50
- HSS7 Percent change from baseline, Mean (SD) [11]: −56.04 (32.39) %
- HSS7 Percent change from baseline, Median [11]: −56.35%
- HSS7, Mean (SD) [12]: 3.17 (4.45)
- HSS7, Median [12]: 1.50
- HSS7 Change from baseline, Mean (SD) [12]: −12.86 (6.28)
- HSS7 Percent change from baseline, Mean (SD) [12]: −80.91 (20.45) %
- HSS7 Percent change from baseline, Median [12]: −86.73%
- HSS7, Mean (SD) [13]: 7.01 (7.58)
- HSS7, Median [13]: 3.50
- HSS7 Change from baseline, Mean (SD) [13]: −6.95 (6.00)
- HSS7 Change from baseline, Median [13]: 7.00
- HSS7 Percent change from baseline, Mean (SD) [13]: −53.79 (43.28) %
- HSS7 Percent change from baseline, Median [13]: −68.18%
- HSS7, Mean (SD) [14]: 4.80 (7.46)
- HSS7, Median [14]: 0.00
- HSS7 Change from baseline, Mean (SD) [14]: −10.00 (9.67)
- HSS7 Change from baseline, Median [14]: −12.00
- HSS7 Percent change from baseline, Median [14]: −100.00%
- HSS7, Mean (SD) [15]: 9.82 (5.59)
- HSS7, Median [15]: 9.20
- HSS7 Change from baseline, Mean (SD) [15]: −5.33 (5.35)
- HSS7 Change from baseline, Median [15]: 4.92
- HSS7 Percent change from baseline, Mean (SD) [15]: −34.46 (32.68) %
- HSS7 Percent change from baseline, Median [15]: −33.59%
- HSS7, Mean (SD) [16]: 8.00 (NC)
- HSS7, Median [16]: 8.00
- HSS7 Change from baseline, Mean (SD) [16]: −12.00 (NC)
- HSS7 Change from baseline, Median [16]: −12.00
- HSS7 Percent change from baseline, Mean (SD) [16]: −60.00 (NC) %
- HSS7 Percent change from baseline, Median [16]: −60.00%
- HSS7, Mean (SD) [17]: 5.88 (4.98)
- HSS7, Median [17]: 6.00
- HSS7 Change from baseline, Mean (SD) [17]: −8.19 (5.87)
- HSS7 Change from baseline, Median [17]: −8.00
- HSS7 Percent change from baseline, Mean (SD) [17]: −55.85 (38.63) %
- HSS7 Percent change from baseline, Median [17]: −57.14%
- HSS7, Mean (SD) [18]: 3.25 (4.37)
- HSS7, Median [18]: 2.00
- HSS7 Change from baseline, Mean (SD) [18]: −12.78 (6.34)
- HSS7 Change from baseline, Median [18]: −12.00
- HSS7 Percent change from baseline, Mean (SD) [18]: −80.12 (19.92) %
- HSS7 Percent change from baseline, Median [18]: −86.97%
- HSS7, Mean (SD) (Week 10, 400 mg BID, Omalizumab-Naïve Population): 7.05 (7.27)
